From patent US9675712B2, “pH sensitive fluorescent polydiacetylene liposome and delivery vehicle comprising same” (priority 2012, dated 2017) come the findings set out here.

Each structure is given as a SMILES string.

The test relates to E. coli 0-157(ATCC 43894). Kind of test: Anti-bacterial analysis of drug release in vitro (plaque / growth inhibition area on agar plate). Type of test: cell-based. To be noted: dish (c): standard solution in PBS; 20 μl, 37° C. overnight. Here is the method: In order to prepare an LB broth and an agar medium, 12.5 g of the LB broth and 7.5 g of the plant agar were transferred to 1 L sterile flask. The components were dissolved in 500 mL of distilled water or deionized water, and flask was tightly covered with an aluminum foil, a plug or a cap similar thereto. The mixture was heated until a boiling point was reached to dissolve the agar, and sterilized by autoclave at 121-124° C. for 15 mins, and then waited until the autoclave was cooled and a pressure was 0. The medium was removed from the autoclave and cooled to room temperature. When the LB agar was cooled to a temperature (approximately 45° C.) which is still considered hot by touch, 0.5 cm or ¼ layer of agar was poured into the Petri dish. It corresponds to approximately 20 to 25 mL volumes of the agar. The Petri dish was positioned on a flat surface until the agar was completely solidified for 30 to 40 mins. The Petri dish containing the solid agar was stored at 4° C.
300 μl of bacteria (E. coli) was added to 3.0 mL of the LB broth, and the culture fluid was strongly shaken. Then, the culture fluid was cultured in an incubator shaking the bacteria at 37° C. overnight. […]
First, a growth inhibition area (plaque) will be shown in the fusible bacterial habitat in the case in which the drug is smoothly released from the liposome. […] Third, the analysis method needs to be quantitative.

Turning to `CC1(C)S[C@@H]2[C@H](NC(=O)[C@H](N)c3ccccc3)C(=O)N2[C@H]1C(=O)O` [ampicillin standard solution, ampicillin], the growth inhibition area entry is “growth inhibition area was generally observed”.
